Where two headings read alike, the source gives them in different places.
Tests used:
Type in all cases: biochemical
Oxford sialidase [1] = experiment: One step chemiluminescence at pH 7.7 after adding Oxford sialidase (Experiment 6); conditions: pH 7.7, 0.25 units sialidase
Experimental: After incubation, 0.25 units of Oxford sialidase in 50 microliters of 50 micromolar acetate buffer was added. Chemiluminescence was spontaneously produced, rising to a maximum of 1380 RLU at 3.25 minutes (see FIG. 10).

Oxford sialidase [2] = experiment: Turner luminometer assay, incubation with Oxford sialidase at pH 5.5, then AMP pH 10 injection (Experiments 1-3)
Experimental: Next, 0.2 units of Oxford Enzyme were diluted with 400 microliters of […]. 200 microliters of the enzyme (0.1 units) were then treated with 10 microliters of the dioxetane stock and incubated at 37° C. for 15 minutes. The solution was then placed in a Turner luminometer. Light was detected at a constant 80 RLU at a pH of 5.5. All Turner readings were calibrated to 31.5° C.
5 microliters of the dioxetane stock prepared in Experiment 1 was added to 0.05 units of Oxford sialidase in 200 microliters of the pH 5.5 buffer. The solution (approximately a 110 micromolar substrate) was incubated at 37° C. for 15 minutes. The solution was then placed in a Turner luminometer, and steady light emission at about 55 RLU was noted (see FIG. 6). Next, 400 microliters of AMP pH 10 buffer was injected to produce an off-scale light spike (i.e., greater than 10,000 RLU).
Experiment 2 was repeated with a 110 micromolar substrate in the presence of 0.025 units of the enzyme. FIG. 7 illustrates that at a pH of 5.5, the light level obtained (56 RLU) was similar to that obtained in Experiment 2. […] Next, an additional 400 microliters of the AMP pH 10 buffer was added, which produced a light peak at 8860 RLU and similar decay kinetics as in Experiment 2.

sialidase [3] = system: sialidase
Text: FIG. 12A is a graph showing chemiluminescence (RLU) as a function of sialidase dilution using a methylumbelliferyl-N-acetylneuraminic acid salt fluorescent substrate in a 0.05 M sodium acetate/0.1M NaCl buffer.
FIG. 12B is a graph showing signal to noise ratio (S/N) as a function of sialidase dilution for a methylumbelliferyl-N-acetylneuraminic acid salt fluorescent substrate in a 0.05 M sodium acetate/0.1M NaCl buffer.
The results and conditions are summarized in Table B and depicted graphically in FIGS. 12A and 12B.

sialidase [4] = system: sialidase; remark: listed apart in the source

COC1(c2ccc(Cl)c(O[C@]3(C(=O)[O-])C[C@H](O)[C@@H](NC(C)=O)[C@H]([C@H](O)[C@H](O)CO)O3)c2)OOC12C1CC3CC2CC(Cl)(C3)C1.[Na+] (stereo partly drawn) [dioxetane 489-102]
time of maximum chemiluminescence (Oxford sialidase [1]): 3.25 min
maximum chemiluminescence (Oxford sialidase [1]; 31.5° C.): 1380 RLU
light peak after AMP pH 10 buffer (Oxford sialidase [2]; 0.025 units enzyme): 8860 RLU
light level at pH 5.5 (Oxford sialidase [2]; 0.025 units enzyme, 110 micromolar substrate): 56 RLU
light emission relative to no enzyme noise at pH 5.5 (Oxford sialidase [2]; 0.05 units sialidase): about 275 times
light spike after AMP pH 10 buffer (Oxford sialidase [2]; 0.05 units sialidase): greater than 10,000 RLU
steady light emission at pH 5.5 (Oxford sialidase [2]; 0.05 units sialidase, approximately 110 micromolar substrate, 37° C. 15 minutes): about 55 RLU
correlation of light emission at pH 5.5 with enzyme concentration (Oxford sialidase [2]; 0.05 versus 0.025 units): did not correlate with enzyme concentration
peak light emission after 0.1 AMP pH 10 injection (Oxford sialidase [2]; 0.1 units enzyme): greater than 10,000 RLU
light detected at pH 5.5 (Oxford sialidase [2]; 0.1 units enzyme, 10 microliters stock, 37° C. 15 minutes): 80 RLU
substrate consumption during the incubation time (Oxford sialidase [2]; 0.1 units enzyme, 37° C. 15 minutes): near complete substrate consumption

Methylumbelliferyl-N-acetylneuraminic acid salt
RLU (sialidase [3]): 75078 RLU
S/N (sialidase [3]): 2.74
RLU (sialidase [3]; dilution 1000): 4209078 RLU
S/N (sialidase [3]; dilution 1000): 153.62
RLU (sialidase [3]; dilution 5000): 1171002 RLU
S/N (sialidase [3]; dilution 5000): 42.74
RLU (sialidase [3]; dilution 25000): 263218 RLU
S/N (sialidase [3]; dilution 25000): 9.61
RLU (sialidase [3]; dilution 625000): 32200 RLU
S/N (sialidase [3]; dilution 625000): 1.18
RLU (sialidase [3]; dilution 3125000): 27538 RLU
S/N (sialidase [3]; dilution 3125000): 1.01
RLU (sialidase [3]; dilution 15625000): 28231 RLU
S/N (sialidase [3]; dilution 15625000): 0.96
sensitivity compared with neuraminidase-Star substrate (sialidase [4]): inferior sensitivity
signal-to-noise ratio (sialidase [4]; dilution of 1:40,000): 1.79

Source: patent US6555698B1, “Chemiluminescent substrates for neuraminidase, assays for detection of neuraminidase and kits therefor” (Tropix, Inc., priority 1998, dated 2003)
